The results in this text go back to patent US20060166985A1, “Pyrrolydin-2-one derivatives as inhibitors of thrombin and factor xa” (priority 2002, published 2006).

The assay concerns the target human Thrombin (Homo sapiens, UniProt P00734). Nature of the assay: In vitro assay for inhibition of Thrombin (chromogenic or fluorogenic assay). In kind it is biochemical. To be noted: Example 2 chromogenic assay, other Examples fluorogenic assay, read-out: thrombin inhibitory Ki. The protocol: Thrombin inhibitory activity is measured by the ability to inhibit human α-thrombin in a chromogenic assay using N-p-tosyl-gly-pro-lys p-nitroanilide as the chromogenic substrate, or in a fluorogenic assay using Rhodamine 110, bis-(CBZ-L-valyl-L-prolyl-L-arginine amide) as the fluorogenic substrate.
The compound was diluted from a 10 mM stock solution in dimethylsulfoxide at appropriate concentrations. Assay was performed at room temperature using buffer consisting of: 50 mM HEPES, 150 mM NaCl, 5 mM CaCl2, 0.1% PEG, pH 7.4. containing human Thrombin (final conc. of 1 nM). Compound and enzyme were preincubated for 15 min prior to addition of the substrate (final conc. of 100 μM). The reaction was stopped after 30 min with the addition of soybean trypsin inhibitor or H-D-PHE-PRO-ARG-Chloromethylketone. […] To obtain IC50 values the data were analysed using ActivityBase® and XLfit®.
Compounds were diluted from a 10 mM stock solution in dimethylsulfoxide at appropriate concentrations. Assay was performed at room temperature using buffer consisting of: 50 mM HEPES, 150 mM NaCl, 5 mM CaCl2, 0.1% PEG, pH 7.4. containing human Thrombin (final conc. Of 0.2 nM). Compound and enzyme were preincubated for 15 min prior to addition of the substrate (final conc. of 10 μM). The reaction was stopped after 3 hrs with the addition of H-D-PHE-PRO-ARG-Chloromethylketone. […] To obtain IC50 values the data were analysed using ActivityBase® and XLfit®.
As usually defined, the Ki is the equilibrium dissociation constant of an inhibitor or competing ligand from its target. As for `CC[C@H](C)[C@@H](C(=O)N1CCOCC1)N1CC[C@H](NS(=O)(=O)CCc2ccc(Br)cc2)C1=O` [Example 12, 2-(4-bromophenyl)-N-{(3S)-1-[(1S,2S)-2-methyl-1-(morpholin 4-ylcarbonyl)butyl]-2-oxopyrrolidin-3-yl}ethanesulfonamide], the inhibitory constant (Ki) was under 0.025 µM.

As for `CN(Cc1ccccc1)C(=O)C[C@@H](C(=O)N1CCOCC1)N1CC[C@H](NS(=O)(=O)CCc2ccc(Cl)s2)C1=O` [Example 83, (3S)-3-[(3S)-3-({[2-(5-chloro-2-thienyl)ethyl]sulfonyl)amino)-2-oxo-1-pyrrolidinyl]-N-methyl-4-(4-morpholinyl)-4-oxo-N-(phenylmethyl)butanamide], the Ki was under 0.05 µM.

For the compound `CN(C)C(=O)C[C@@H](C(=O)N1CCOCC1)N1CC[C@H](NS(=O)(=O)CCc2ccc(Cl)s2)C1=O` [Example 32], the Ki was under 0.05 µM.

Turning to `Cc1noc(C[C@@H](C(=O)N2CCOCC2)N2CC[C@H](NS(=O)(=O)CCc3ccc(Cl)cc3)C2=O)n1` [Example 82, 2-(4-chlorophenyl)-N-{(3S)-1-[(1S)-1-[(3-methyl-1,2,4-oxadiazol-5-yl)methyl]-2-(4-morpholinyl)-2-oxoethyl]-2-oxo-3-pyrrolidinyl}ethanesulfonamide], the Ki was under 0.1 µM.

Take `CCOC(=O)CN([C@H]1CCN([C@@H](C)C(=O)N2CCOCC2)C1=O)S(=O)(=O)CCc1ccc(Cl)s1` [Example 34, Ethyl N-{[2-(5-chlorothien-2-yl)ethyl]sulfonyl}-N-{(3S)-1-[(1S)-1-methyl-2-morpholin-4-yl-2-oxoethyl]-2-oxopyrrolidin-3-yl}glycinate]: the Ki is under 0.025 µM.

Turning to `CC[C@@H](C(=O)N1CCOCC1)N1CC[C@H](NS(=O)(=O)CCc2ccc(Cl)s2)C1=O` [Example 5, 2-(5-chlorothien-2-yl)-N-{(3S)-1-[(1S)-1-(morpholin-4-ylcarbonyl)propyl]-2-oxopyrrolidin-3-yl}ethanesulfonamide], the Ki was under 0.025 µM.

`Cc1noc(C[C@@H](C(=O)N2CCOCC2)N2CC[C@H](N(C)S(=O)(=O)CCc3ccc(Cl)s3)C2=O)n1` [Example 79, 2-(5-chloro-2-thienyl)-N-methyl-N-{(3S)-1-[(1S)-1-[(3-methyl-1,2,4-oxadiazol-5-yl)methyl]-2-(4-morpholinyl)-2-oxoethyl]-2-oxo-3-pyrrolidinyl}ethanesulfonamide]: the Ki was under 0.05 µM.

`O=C([C@H](Cc1ccc(F)cc1)N1CC[C@H](NS(=O)(=O)CCc2ccc(Cl)s2)C1=O)N1CCOCC1` [Example 70, 2-(5-chloro-2-thienyl)-N-{(3S)-1-[(1S)-1-[(4-fluorophenyl)methyl]-2-(4-morpholinyl)-2-oxoethyl]-2-oxo-3-pyrrolidinyl}ethanesulfonamide]: the Ki was under 0.05 µM.

As to `CO[C@H](C)[C@@H](C(=O)N1CCOCC1)N1CC[C@H](NS(=O)(=O)/C=C(\C)c2ccc(Cl)s2)C1=O` [Example 18, (1E)-2-(5-chlorothien-2-yl)-N-{(3S)-1-[(1S,2R)-2-methoxy-1-(morpholin-4-ylcarbonyl)propyl]-2-oxopyrrolidin-3-yl}prop-1-ene-1-sulfonamide], the Ki is under 0.01 µM.

Take `CC(C)[C@@H](C(=O)N1CCOCC1)N1CC[C@H](NS(=O)(=O)CCc2ccc(Cl)cc2)C1=O` [Example 45, 2-(4-chlorophenyl)-N-{(3S)-1-[(1S)-2-methyl-1-(morpholin-4-ylcarbonyl)propyl]-2-oxopyrrolidin-3-yl}ethanesulfonamide]: the Ki is under 0.05 µM.

As for `CC(C)OC[C@@H](C(=O)N1CCOCC1)N1CC[C@H](NS(=O)(=O)CCc2ccc(Cl)s2)C1=O` [Example 84, 2-(5-chloro-2-thienyl)-N-{(3S)-1-[(1S)-1-{[(1-methylethyl)oxy]methyl}-2-(4-morpholinyl)-2-oxoethyl]-2-oxo-3-pyrrolidinyl}ethanesulfonamide], the Ki was under 0.01 µM.

As for `O=C([C@H](Cc1cscn1)N1CC[C@H](NS(=O)(=O)CCc2ccc(Cl)cc2)C1=O)N1CCOCC1` [Example 72, 2-(4-chlorophenyl)-N-{(3S)-1-[(1S)-2-(4-morpholinyl)-2-oxo-1-(1,3-thiazol-4-ylmethyl)ethyl]-2-oxo-3-pyrrolidinyl}ethanesulfonamide], the Ki was under 0.2 µM.

As for `CC(C)C[C@@H](C(=O)N1CCOCC1)N1CC[C@H](NS(=O)(=O)CCc2ccc(Cl)s2)C1=O` [Example 37, 2-(5-chlorothien-2-yl)-N-{(3S)-1-[(1S)-3-methyl-1-(morpholin-4-ylcarbonyl)butyl]-2-oxopyrrolidin-3-yl}ethanesulfonamide], the Ki was under 0.1 µM.

With `C[C@@H](C(=O)N1CCOCC1)N1CC[C@H](NS(=O)(=O)CC2CCc3cc(Cl)ccc32)C1=O` (stereo partly drawn) [Example 61, 1-(5-chloro-2,3-dihydro-1H-inden-1-yl)-N-{(3S)-1-[(1S)-1-methyl-2-(4-morpholinyl)-2-oxoethyl]-2-oxo-3-pyrrolidinyl}methanesulfonamide], the Ki is under 0.1 µM.

As for `CC[C@H](C)[C@@H](C(=O)N1CCOCC1)N1CC[C@H](NS(=O)(=O)/C=C(\F)c2ccc(Cl)cc2)C1=O` [Example 30, (Z)-2-(4-chlorophenyl)-2-fluoro-N-{(3S)-1-[(1S,2S)-2-methyl-1-(morpholin-4-ylcarbonyl)butyl]-2-oxopyrrolidin-3-yl}ethenesulfonamide], the Ki is under 0.2 µM.

In the case of `COC[C@@H](C(=O)N1CCOCC1)N1CC[C@H](N(CC(=O)N(C)C)S(=O)(=O)CCc2ccc(Cl)s2)C1=O` [Example 97, N^2-{[2-(5-chloro-2-thienyl)ethyl]sulfonyl}-N^1,N^1-dimethyl-N^2-{(3S)-1-[(1S)-1-[(methyloxy)methyl]-2-(4-morpholinyl)-2-oxoethyl]-2-oxo-3-pyrrolidinyl}glycinamide], the Ki was under 0.05 µM.

With `C[C@@H](C(=O)N1CCOCC1)N1CC[C@H](NS(=O)(=O)/C=C(/c2ccc(Cl)s2)C(F)(F)F)C1=O` [Example 41, (1E)-2-(5-chlorothien-2-yl)-3,3,3-trifluoro-N-{(3S)-1-[(1S)-1-methyl-2-morpholin-4-yl-2-oxoethyl]-2-oxopyrrolidin-3-yl}prop-1-ene-1-sulfonamide], the Ki was under 0.1 µM.

On to `CC[C@H](C)[C@@H](C(=O)N1CCOCC1)N1CC[C@H](N(CC(=O)NC)S(=O)(=O)CCc2ccc(Cl)s2)C1=O` [Example 39, N^2-{[2-(5-chlorothien-2-yl)ethyl]sulfonyl}-N^1-methyl-N^2-{(3S)-1-[(1S,2S)-2-methyl-1-(morpholin-4-ylcarbonyl)butyl]-2-oxopyrrolidin-3-yl}glycinamide], for which the Ki was under 0.025 µM.

Regarding `C/C(=C\S(=O)(=O)N[C@H]1CCN([C@@H](CC(=O)OCc2ccccc2)C(=O)N2CCOCC2)C1=O)c1ccc(Cl)s1` [Example 22, Benzyl (3S)-3-[(3S)-3-({[(1E)-2-(5-Chlorothien-2-yl)prop-1-enyl]sulfonyl}amino)-2-oxopyrrolidin-1-yl]-4-morpholin-4-yl-4-oxobutanoate], the Ki is under 0.01 µM.

Regarding `COC[C@@H](C(=O)N1CCOCC1)N1CC[C@H](NS(=O)(=O)/C=C(\C)c2ccc(Cl)s2)C1=O` [Example 16, (1E)-2-(5-chlorothien-2-yl)-N-{(3S)-1-[(1S)-1-(methoxymethyl)-2-morpholin-4-yl-2-oxoethyl]-2-oxopyrrolidin-3-yl}prop-1-ene-1-sulfonamide], the inhibitory constant (Ki) is under 0.01 µM.
